“And” between values parts separate entries of the source, which are not always exact repeats. Equal entries are not always repeated.
System: 648629-189-R-J1-PDC spheroids with HUVEC/MSC, viability
Assay: Anticancer human tumor 648629-189-R-J1-PDC patient-derived bladder carcinoma cell line growth inhibition [PI3K]
Details: for viability, T/C: stronger effect = lower value
Source text: Combinatorial screen of targeted agents with the PI3K inhibitors inavolisib, alpelisib, duvelisib, and copanlisib in multi-cell type tumor spheroids
A high-throughput screen of multi-cell type tumor spheroids was designed to identify active combinations of targeted small molecules and PI3K pathway inhibitors. Complex spheroids include a stromal component modeled by human endothelial cells (HUVEC) and fibroblasts modeled by human mesenchymal stem cells (MSCs). The concentration ranges selected for each drug and investigational agent were based upon clinically achievable concentrations if the clinical Cmax of the agent was known.
Compounds. The drugs and investigational agents: inavolisib (NSC800729), alpelisib (NSC765974), duvelisib (NSC772469), copanlisib (NSC816437), ipatasertib (NSC767898), afuresertib (NSC778305), talazoparib (NSC767125), sapanisertib (NSC764658), selumetinib (NSC741078), tovorafenib (DAY101, NSC766906), vemurafenib (NSC761431), ravoxertinib (NSC781343), sotorasib (NSC818433), MRTX1133 (NSC 836407), abemaciclib (NSC 768073), palbociclib (NSC758247), venetoclax (NSC 766270), SY5609 (NSC837396), enzalutamide (NSC755605), and darolutamide (NSC825331), were obtained from the National Cancer Institute (NCI) Developmental Therapeutics Program Chemical Repository. The FDA-approved anticancer drug set is available from the NCI Developmental Therapeutics Program. […] The stock solutions were prepared in dimethyl sulfoxide (DMSO, Sigma-Aldrich, St. Louis, MO, cat. D2650) at 800-fold the tested concentration and stored at -70 degrees C prior to their use. All drugs and investigational agents were tested over a range starting from a high concentration at or near the clinical Cmax and decreasing in half-log increments. If the clinical Cmax for an agent had not been determined, the highest concentration tested was 10 microM.
Cell Culture. All cells were maintained in an incubator at 37 degrees C and 5% CO2 with 95% humidity. The PDC lines were cultured according to standard operating procedures established by the NCI PDMR (https://pdmr.cancer.gov/sops/default.htm). All PDCs were thawed and cultured in Matrigel-coated flasks prepared with a working solution of 1X Ham's F-12 nutrient mix, without supplementation (Invitrogen, Waltham, MA, cat. 11765054), 100 U/mL penicillin-streptomycin (Invitrogen, cat. 15140122), and 2.5% Matrigel (Corning Inc., Corning, NY, cat. 354248) for the first three passages. The 354836-022-R-J1-PDC, 475296-252-R-J1-PDC, and 997726-040-R-J2-PDC lines were cultured in 6A media, which includes advanced DMEM/F-12 (Thermo Fisher Scientific, cat. 12634028), 10 mM HEPES (Thermo Fisher Scientific, cat. 15630080), 1X GlutaMAX supplement (Thermo Fisher Scientific, cat. 35050061), 0.1 mg/mL primocin (InvivoGen, San Diego, CA, cat. ant-pm-2), 10% defined fetal bovine serum, heat inactivated (HyClone Laboratories Inc., Logan, UT, cat. SH30070.03HI), 50% L-WRN conditioned media (ATCC, cat. CRL-3276), 1.25 mM N-Acetyl-L-cysteine (Sigma-Aldrich, cat. A9165), 10 mM nicotinamide (Sigma-Aldrich, cat. N0636), 1X B-27 supplement (Thermo Fisher Scientific, cat. 17504044), 1X N-2 supplement (Thermo Fisher Scientific, cat. 17502048), and 10 microM Y-27632 dihydrochloride (Tocris Bioscience, Bristol, United Kingdom, cat. 1254). The 624824-186-R-J2-PDC line was cultured in 6C/Colon 1B media, which includes all 6A media components plus 50 ng/mL human EGF recombinant protein (Thermo Fisher Scientific, cat. PHG0311). […]
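Also: spheroids exposed to agents for seven days before reading.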
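For viability, T/C in this document: percent of vehicle control luminescence where 100% = DMSO treated spheroids.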

SMILES	viability, T/C (compound 0.00316 µM)	viability, T/C (compound 0.01 µM)	viability, T/C (compound 0.0316 µM)	viability, T/C (compound 0.1 µM)	viability, T/C (compound 0.316 µM)	viability, T/C (compound 1 µM)	IC50 (curve of compound) [µM]	viability, T/C (compound 3.16 µM)	viability, T/C (compound 10 µM)	IC50 (compound alone, run of 04/25/2023)	IC50 (compound alone, run of 04/24/2023)	viability, T/C (compound 0.00949 µM)	viability, T/C (compound 0.03 µM)	viability, T/C (compound 0.0949 µM)	viability, T/C (compound 0.3 µM)	viability, T/C (compound 0.949 µM)	viability, T/C (compound 3 µM)	viability, T/C (compound 0.000316 µM)	viability, T/C (compound 0.001 µM)
CCN1CCN(Cc2ccc(Nc3ncc(F)c(-c4cc(F)c5nc(C)n(C(C)C)c5c4)n3)nc2)CC1	107% [middle of 4 runs]	96.7% [middle of 4 runs]	103% [middle of 4 runs]	103% [middle of 4 runs]	109% [middle of 4 runs]	117% [middle of 4 runs]	> 1												
CNC(=O)c1ccc(N2C(=S)N(c3ccc(C#N)c(C(F)(F)F)c3)C(=O)C2(C)C)cc1F			107% (2×) and 95.9% and 101%	98.2% [middle of 4 runs]	107% [middle of 4 runs]	105% [middle of 4 runs]	> 10	92.6% and 104% (2×) and 108%	91% [middle of 4 runs]										
COc1c(OCCCN2CCOCC2)ccc2c3n(c(=NC(=O)c4cnc(N)nc4)nc12)CCN3	108% [middle of 8 runs]	103% [middle of 8 runs]	97.5% [middle of 8 runs]	64.5% [middle of 8 runs]	18.6% [middle of 8 runs]	3.42% [middle of 8 runs]				144 nM [middle of 7 runs]									
C[C@@H](NC(=O)c1ncnc(N)c1Cl)c1ncc(C(=O)Nc2cc(C(F)(F)F)c(Cl)cn2)s1			105% [middle of 4 runs]	98.5% [middle of 4 runs]	103% [middle of 4 runs]	106% and 107% (2×) and 91.5%	> 10	114% [middle of 4 runs]	117% [middle of 4 runs]										
Cc1nc(NC(=O)N2CCCC2C(N)=O)sc1-c1ccnc(C(C)(C)C(F)(F)F)c1 (stereo unspecified)			103% [middle of 8 runs]	101% [middle of 8 runs]	95.9% [middle of 8 runs]	77.4% [middle of 8 runs]		60% [middle of 8 runs]	37.3% [middle of 8 runs]		5.36 µM [middle of 8 runs]								
Cn1cnc2c(F)c(Nc3ccc(Br)cc3Cl)c(C(=O)NOCCO)cc21							> 3					108% and 98.8% (2×) and 95.3%	96.8% [middle of 4 runs]	99.2% [middle of 4 runs]	94.5% [middle of 4 runs]	103% [middle of 4 runs]	84.9% [middle of 4 runs]		
Cn1nccc1Nc1nccc(-c2ccn(C(CO)c3ccc(Cl)c(F)c3)c(=O)c2)n1 (stereo unspecified)			107% [middle of 4 runs]	104% [middle of 4 runs]	112% [middle of 4 runs]	110% [middle of 4 runs]	> 10	110% [middle of 4 runs]	81.2% [middle of 4 runs]										
Cn1ncnc1[C@H]1c2n[nH]c(=O)c3cc(F)cc(c23)N[C@@H]1c1ccc(F)cc1	101% [middle of 4 runs]	92.9% [middle of 4 runs]	73.1% [middle of 4 runs]	63.2% [middle of 4 runs]			> 0.1											105% [middle of 4 runs]	105% [middle of 4 runs]
